#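 Each compound was tested at five concentrations against cells in 96-well plates for 48 hours. Here, GI50 denotes the concentration required for 50% inhibition of growth.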 Activity calls are given as the source filed them. Rule as the data show it: active = GI50 up to about 1.1 µM and inactive = higher.
# Assays:
# Experiment in all cases: inhibition of tumour cell growth, NCI panel, 48 h
# M14 = system: M14
# A498 = system: A498
# MOLT-4 = system: MOLT-4
# OVCAR-8 = system: OVCAR-8
# KM12 = system: KM12
# MDA-MB-435 = system: MDA-MB-435
# NCI-H460 = system: NCI-H460
# RXF 393 = system: RXF 393
# OVCAR-5 = system: OVCAR-5
# SR = system: SR
# NCI-H226 = system: NCI-H226
# Hs-578T = system: Hs-578T
# IGROV-1 = system: IGROV-1
# SK-MEL-28 = system: SK-MEL-28
# T47D = system: T47D
# HCT-116 = system: HCT-116
# 786-0 = system: 786-0
# Malme-3M = system: Malme-3M
# CCRF-CEM = system: CCRF-CEM
# SF-268 = system: SF-268
# A549 = system: A549
# SNB-75 = system: SNB-75
# SF-539 = system: SF-539
# OVCAR-3 = system: OVCAR-3
# SW-620 = system: SW-620
# HOP-62 = system: HOP-62
# OVCAR-4 = system: OVCAR-4
# SNB-19 = system: SNB-19
# HCT-15 = system: HCT-15
# UACC-257 = system: UACC-257
# CAKI-1 = system: CAKI-1
# TK-10 = system: TK-10
# BT-549 = system: BT-549
# COLO 205 = system: COLO 205
# LOX IMVI = system: LOX IMVI
# MDA-N = system: MDA-N
# MCF7 = system: MCF7
# RPMI-8226 = system: RPMI-8226
# ACHN = system: ACHN
# MDA-MB-231 = system: MDA-MB-231
# DU-145 = system: DU-145
# SK-OV-3 = system: SK-OV-3
# EKVX = system: EKVX
# UO-31 = system: UO-31
# HOP-92 = system: HOP-92
# HT-29 = system: HT-29
# HCC 2998 = system: HCC 2998
# U-251 = system: U-251
# UACC-62 = system: UACC-62
# NCI-H23 = system: NCI-H23
# K562 = system: K562
# SF-295 = system: SF-295
# PC-3 = system: PC-3
# SN12C = system: SN12C
# NCI/ADR-RES = system: NCI/ADR-RES
# HL-60 = system: HL-60
# SK-MEL-2 = system: SK-MEL-2
# SK-MEL-5 = system: SK-MEL-5
# NCI-H522 = system: NCI-H522
smiles,measurement,setting,value
c1ncc(C23C4C5C6C4C2C6C53)[nH]1 (stereo not drawn),GI50,M14,> 100 µM (inactive)
same,GI50,A498,> 100 µM (inactive)
same,GI50,MOLT-4,> 100 µM (inactive)
same,GI50,OVCAR-8,> 100 µM (inactive)
same,GI50,KM12,> 100 µM (inactive)
same,GI50,MDA-MB-435,> 100 µM (inactive)
same,GI50,NCI-H460,> 100 µM (inactive)
same,GI50,RXF 393,> 100 µM (inactive)
same,GI50,OVCAR-5,> 100 µM (inactive)
same,GI50,SR,> 100 µM (inactive)
same,GI50,NCI-H226,> 100 µM (inactive)
same,GI50,Hs-578T,> 100 µM (inactive)
same,GI50,IGROV-1,> 100 µM (inactive)
same,GI50,SK-MEL-28,> 100 µM (inactive)
same,GI50,T47D,> 100 µM (inactive)
same,GI50,HCT-116,> 100 µM (inactive)
same,GI50,786-0,> 100 µM (inactive)
same,GI50,Malme-3M,> 100 µM (inactive)
same,GI50,CCRF-CEM,> 100 µM (inactive)
same,GI50,SF-268,> 100 µM (inactive)
same,GI50,A549,> 100 µM (inactive)
same,GI50,SNB-75,> 100 µM (inactive)
same,GI50,SF-539,> 100 µM (inactive)
same,GI50,OVCAR-3,> 100 µM (inactive)
same,GI50,SW-620,> 100 µM (inactive)
same,GI50,HOP-62,> 100 µM (inactive)
same,GI50,OVCAR-4,> 100 µM (inactive)
same,GI50,SNB-19,> 100 µM (inactive)
same,GI50,HCT-15,> 100 µM
same,GI50,UACC-257,> 100 µM (inactive)
same,GI50,CAKI-1,> 100 µM (inactive)
same,GI50,TK-10,> 100 µM (inactive)
same,GI50,BT-549,> 100 µM (inactive)
same,GI50,COLO 205,> 100 µM (inactive)
same,GI50,LOX IMVI,> 100 µM (inactive)
same,GI50,MDA-N,> 100 µM (inactive)
same,GI50,MCF7,> 100 µM (inactive)
same,GI50,RPMI-8226,> 100 µM (inactive)
same,GI50,ACHN,> 100 µM (inactive)
same,GI50,MDA-MB-231,> 100 µM (inactive)
same,GI50,DU-145,> 100 µM (inactive)
same,GI50,SK-OV-3,> 100 µM (inactive)
same,GI50,EKVX,> 100 µM (inactive)
same,GI50,UO-31,> 100 µM (inactive)
same,GI50,HOP-92,> 100 µM (inactive)
same,GI50,HT-29,> 100 µM (inactive)
same,GI50,HCC 2998,> 100 µM (inactive)
same,GI50,U-251,> 100 µM (inactive)
same,GI50,UACC-62,> 100 µM (inactive)
same,GI50,NCI-H23,> 100 µM (inactive)
same,GI50,K562,> 100 µM (inactive)
same,GI50,SF-295,> 100 µM (inactive)
same,GI50,PC-3,> 100 µM (inactive)
same,GI50,SN12C,> 100 µM (inactive)
same,GI50,NCI/ADR-RES,> 100 µM (inactive)
same,GI50,HL-60,> 100 µM (inactive)
same,GI50,SK-MEL-2,> 100 µM (inactive)
same,GI50,SK-MEL-5,> 100 µM (inactive)
CN(Cc1cnc2nc(N)nc(N)c2n1)c1ccc(C(=O)NCCCS(=O)(=O)O)cc1,GI50,M14,> 100 µM (inactive)
same,GI50,A498,> 100 µM (inactive)
same,GI50,MOLT-4,> 100 µM (inactive)
same,GI50,OVCAR-8,> 100 µM (inactive)
same,GI50,KM12,> 100 µM (inactive)
same,GI50,MDA-MB-435,> 100 µM (inactive)
same,GI50,NCI-H460,> 100 µM (inactive)
same,GI50,NCI-H522,> 100 µM (inactive)
same,GI50,OVCAR-5,> 100 µM (inactive)
same,GI50,SR,37.6 µM (inactive)
same,GI50,NCI-H226,> 100 µM (inactive)
same,GI50,Hs-578T,> 100 µM (inactive)
same,GI50,IGROV-1,> 100 µM (inactive)
same,GI50,SK-MEL-28,> 100 µM (inactive)
same,GI50,T47D,> 100 µM (inactive)
same,GI50,HCT-116,83.9 µM (inactive)
same,GI50,786-0,> 100 µM (inactive)
same,GI50,Malme-3M,> 100 µM (inactive)
same,GI50,SF-268,> 100 µM (inactive)
same,GI50,A549,> 100 µM (inactive)
same,GI50,SNB-75,> 100 µM (inactive)
same,GI50,SF-539,> 100 µM (inactive)
same,GI50,OVCAR-3,> 100 µM (inactive)
same,GI50,SW-620,> 100 µM (inactive)
same,GI50,HOP-62,> 100 µM (inactive)
same,GI50,OVCAR-4,> 100 µM (inactive)
same,GI50,SNB-19,> 100 µM (inactive)
same,GI50,HCT-15,> 100 µM
same,GI50,UACC-257,> 100 µM (inactive)
same,GI50,TK-10,> 100 µM (inactive)
same,GI50,BT-549,> 100 µM (inactive)
same,GI50,COLO 205,> 100 µM (inactive)
same,GI50,LOX IMVI,75.9 µM (inactive)
same,GI50,MDA-N,> 100 µM (inactive)
same,GI50,MCF7,> 100 µM (inactive)
same,GI50,RPMI-8226,> 100 µM (inactive)
same,GI50,ACHN,> 100 µM (inactive)
same,GI50,MDA-MB-231,> 100 µM (inactive)
same,GI50,DU-145,> 100 µM (inactive)
same,GI50,SK-OV-3,> 100 µM (inactive)
same,GI50,EKVX,> 100 µM (inactive)
same,GI50,UO-31,> 100 µM (inactive)
same,GI50,HOP-92,0.0264 µM (active)
same,GI50,HT-29,> 100 µM (inactive)
same,GI50,HCC 2998,> 100 µM (inactive)
same,GI50,U-251,> 100 µM (inactive)
same,GI50,UACC-62,> 100 µM (inactive)
same,GI50,NCI-H23,> 100 µM (inactive)
same,GI50,K562,> 100 µM (inactive)
same,GI50,SF-295,> 100 µM (inactive)
same,GI50,PC-3,> 100 µM (inactive)
same,GI50,SN12C,> 100 µM (inactive)
same,GI50,NCI/ADR-RES,> 100 µM (inactive)
same,GI50,SK-MEL-2,> 100 µM (inactive)
same,GI50,SK-MEL-5,> 100 µM (inactive)
